One assay addresses JAK1 (Homo sapiens (Human), UniProt P23458). In words: pSTAT3 Cell Assay (MSD, TF1 cells). Type of assay: cell-based. An outline of the steps: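 Serum starvation, 1 h compound (10 pt, 4-fold from 10 μM), IL-6 15 min, lysis. pSTAT3 read by MSD immunoassay, anti-STAT3 Abs. Normalized % activity vs log[cpd], 4-PL fit → IC50.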
The target of a further assay is JH2 domain of human Tyk2 (Homo sapiens (Human), UniProt P29597). The experiment in a line: JH2 Biochemical Assay (TR-FRET probe displacement). Type of assay: binding. (Time-resolved FRET reads energy transfer from a long-lived donor to a nearby acceptor.)
In another assay the target is Tyk2 (Homo sapiens (Human), UniProt P29597). The experiment in a line: pSTAT4 Cell Assay (MSD, NK92 cells). Type of assay: cell-based.
The target of a further assay is JAK2 (Homo sapiens (Human), UniProt O60674). The experiment in a line: pSTAT5 Cell Assay (MSD, TF1 cells). Type of assay: cell-based. An outline of the steps:
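Serum-starved TF1 cells were pretreated with compound for 1 h (10-point four-fold series from 10 μM), then stimulated with 30 ng/mL IL-3 for 15 min. pSTAT5 in lysates was measured by MSD immunoassay. IC50 came from a 4-parameter logistic fit.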

Setting [1] is: JH2 domain of human Tyk2, TR-FRET probe displacement.
[2] abbreviates: TR-FRET probe displacement, JH2 domain of human Tyk2.

Where two headings read alike, the source gives them in different places.

JAK1, sequence (P23458 whole entry, the tested form may be a part): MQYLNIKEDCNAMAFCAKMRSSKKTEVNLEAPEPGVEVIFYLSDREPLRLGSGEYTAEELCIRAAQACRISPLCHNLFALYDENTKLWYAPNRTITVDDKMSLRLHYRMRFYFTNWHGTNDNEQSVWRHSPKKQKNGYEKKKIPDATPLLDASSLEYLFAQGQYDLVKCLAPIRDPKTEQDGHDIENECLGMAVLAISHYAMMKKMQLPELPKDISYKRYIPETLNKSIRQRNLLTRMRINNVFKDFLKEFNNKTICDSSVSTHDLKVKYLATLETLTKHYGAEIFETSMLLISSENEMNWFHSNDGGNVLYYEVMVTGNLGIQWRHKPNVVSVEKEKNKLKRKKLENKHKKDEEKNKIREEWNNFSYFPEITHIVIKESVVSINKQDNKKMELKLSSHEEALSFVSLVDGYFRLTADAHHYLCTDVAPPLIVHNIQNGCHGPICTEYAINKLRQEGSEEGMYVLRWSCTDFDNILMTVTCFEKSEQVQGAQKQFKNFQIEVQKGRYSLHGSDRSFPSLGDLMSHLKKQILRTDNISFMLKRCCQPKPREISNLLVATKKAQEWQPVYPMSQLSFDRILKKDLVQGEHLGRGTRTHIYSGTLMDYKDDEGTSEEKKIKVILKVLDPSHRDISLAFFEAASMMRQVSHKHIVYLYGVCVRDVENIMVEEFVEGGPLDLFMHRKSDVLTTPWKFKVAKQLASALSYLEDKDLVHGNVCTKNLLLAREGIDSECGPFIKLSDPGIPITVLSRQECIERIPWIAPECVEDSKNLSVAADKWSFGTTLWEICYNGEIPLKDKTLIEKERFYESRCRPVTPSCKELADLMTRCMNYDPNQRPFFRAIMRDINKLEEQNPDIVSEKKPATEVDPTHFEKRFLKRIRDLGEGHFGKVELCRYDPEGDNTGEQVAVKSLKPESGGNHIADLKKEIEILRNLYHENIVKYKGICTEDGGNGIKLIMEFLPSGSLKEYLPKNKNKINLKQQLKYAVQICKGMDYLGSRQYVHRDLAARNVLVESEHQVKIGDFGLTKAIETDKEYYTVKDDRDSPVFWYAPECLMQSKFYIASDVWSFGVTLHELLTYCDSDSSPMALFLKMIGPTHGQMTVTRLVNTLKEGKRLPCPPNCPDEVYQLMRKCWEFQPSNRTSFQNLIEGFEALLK
JH2 domain of human Tyk2, sequence (P29597 575-876): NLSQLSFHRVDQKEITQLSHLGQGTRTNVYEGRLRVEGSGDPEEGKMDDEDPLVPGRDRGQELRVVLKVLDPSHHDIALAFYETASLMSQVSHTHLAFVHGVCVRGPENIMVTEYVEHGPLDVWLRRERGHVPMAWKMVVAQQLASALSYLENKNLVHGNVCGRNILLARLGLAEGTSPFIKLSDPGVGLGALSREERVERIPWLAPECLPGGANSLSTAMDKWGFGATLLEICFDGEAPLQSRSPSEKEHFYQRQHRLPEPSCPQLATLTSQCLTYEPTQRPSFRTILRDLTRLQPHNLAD
JAK2, sequence (O60674 whole entry): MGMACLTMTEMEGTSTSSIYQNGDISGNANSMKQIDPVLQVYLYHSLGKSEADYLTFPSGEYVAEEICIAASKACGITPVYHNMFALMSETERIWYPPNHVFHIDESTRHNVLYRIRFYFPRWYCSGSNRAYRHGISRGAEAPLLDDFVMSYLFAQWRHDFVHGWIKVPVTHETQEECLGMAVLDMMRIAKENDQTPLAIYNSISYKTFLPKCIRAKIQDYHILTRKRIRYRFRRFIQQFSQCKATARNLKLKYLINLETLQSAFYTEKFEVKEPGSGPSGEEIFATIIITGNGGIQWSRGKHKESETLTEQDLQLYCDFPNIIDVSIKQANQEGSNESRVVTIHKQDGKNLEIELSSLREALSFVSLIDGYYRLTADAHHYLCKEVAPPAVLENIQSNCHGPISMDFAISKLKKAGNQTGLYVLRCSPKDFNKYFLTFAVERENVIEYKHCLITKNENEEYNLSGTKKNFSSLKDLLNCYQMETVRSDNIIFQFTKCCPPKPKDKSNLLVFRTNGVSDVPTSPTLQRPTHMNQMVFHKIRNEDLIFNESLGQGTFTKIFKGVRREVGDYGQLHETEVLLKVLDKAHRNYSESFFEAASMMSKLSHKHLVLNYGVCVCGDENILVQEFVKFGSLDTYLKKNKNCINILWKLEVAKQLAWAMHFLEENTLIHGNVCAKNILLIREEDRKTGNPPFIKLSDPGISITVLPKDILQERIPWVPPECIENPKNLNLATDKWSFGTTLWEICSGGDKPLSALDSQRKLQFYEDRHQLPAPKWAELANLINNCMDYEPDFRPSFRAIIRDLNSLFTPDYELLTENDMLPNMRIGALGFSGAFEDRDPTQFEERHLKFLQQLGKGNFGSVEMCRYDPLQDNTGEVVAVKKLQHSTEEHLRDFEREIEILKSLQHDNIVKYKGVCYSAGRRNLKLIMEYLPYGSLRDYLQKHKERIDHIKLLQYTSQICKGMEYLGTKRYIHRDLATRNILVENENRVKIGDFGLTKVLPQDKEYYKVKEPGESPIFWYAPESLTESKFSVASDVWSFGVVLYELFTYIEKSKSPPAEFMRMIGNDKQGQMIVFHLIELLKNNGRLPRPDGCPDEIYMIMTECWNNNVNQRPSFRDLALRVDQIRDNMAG
Tyk2, sequence (P29597 whole entry): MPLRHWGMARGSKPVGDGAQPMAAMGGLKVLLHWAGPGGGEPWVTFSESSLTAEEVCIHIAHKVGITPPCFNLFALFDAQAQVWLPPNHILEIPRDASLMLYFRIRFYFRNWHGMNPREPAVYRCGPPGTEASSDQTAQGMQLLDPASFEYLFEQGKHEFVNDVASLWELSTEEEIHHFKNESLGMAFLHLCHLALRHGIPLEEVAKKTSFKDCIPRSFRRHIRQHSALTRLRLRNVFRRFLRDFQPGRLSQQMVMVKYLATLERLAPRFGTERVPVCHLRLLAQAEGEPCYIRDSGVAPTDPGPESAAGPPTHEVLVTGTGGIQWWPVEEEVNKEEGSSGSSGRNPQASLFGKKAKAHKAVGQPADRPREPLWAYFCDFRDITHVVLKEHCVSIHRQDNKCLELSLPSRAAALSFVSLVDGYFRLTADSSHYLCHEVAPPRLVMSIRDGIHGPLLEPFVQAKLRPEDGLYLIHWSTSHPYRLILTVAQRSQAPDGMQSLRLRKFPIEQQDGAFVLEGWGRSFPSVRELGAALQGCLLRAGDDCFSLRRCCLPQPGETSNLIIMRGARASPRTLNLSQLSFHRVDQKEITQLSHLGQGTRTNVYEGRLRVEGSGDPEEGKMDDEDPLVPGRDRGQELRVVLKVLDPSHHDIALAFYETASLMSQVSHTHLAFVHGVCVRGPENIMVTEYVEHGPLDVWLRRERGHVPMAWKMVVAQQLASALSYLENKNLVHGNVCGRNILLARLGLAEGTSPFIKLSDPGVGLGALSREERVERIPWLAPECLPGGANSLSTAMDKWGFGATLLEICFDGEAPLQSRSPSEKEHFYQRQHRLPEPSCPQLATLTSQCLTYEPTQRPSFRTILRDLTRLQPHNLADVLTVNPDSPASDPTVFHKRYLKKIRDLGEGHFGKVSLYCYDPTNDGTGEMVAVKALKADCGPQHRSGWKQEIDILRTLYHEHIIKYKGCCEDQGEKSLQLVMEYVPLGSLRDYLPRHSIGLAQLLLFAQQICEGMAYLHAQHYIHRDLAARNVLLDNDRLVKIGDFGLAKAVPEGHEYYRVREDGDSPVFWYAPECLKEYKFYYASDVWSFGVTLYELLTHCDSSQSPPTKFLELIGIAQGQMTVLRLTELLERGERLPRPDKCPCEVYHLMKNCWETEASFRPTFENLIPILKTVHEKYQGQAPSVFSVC

`CC(=O)Nc1cc(Nc2cc(C)nc(C(C)(F)F)n2)c(OC[C@H]2C[C@@H]2F)cn1` (racemic) [Example 426, Trans-rac-N-(4-((2-(1,1-difluoroethyl)-6-methylpyrimidin-4-yl)amino)-5-((2-fluorocyclopropyl)methoxy)pyridin-2-yl)acetamide]: the IC50 (usually the concentration that inhibits the measured activity by half) against JAK1 (IL-6 stimulated, MSD) is ≥ 1000 nM; at JH2 domain of human Tyk2 (setting [1]), ≤ 10 nM; on Tyk2 (MSD), ≤ 10 nM; against JAK2 (IL-3 stimulated, MSD) it was ≥ 1000 nM.

On to `CC(=O)Nc1cc(Nc2cc(C)nc(C(C)(F)F)n2)c(-c2ncc(F)cn2)cn1` [Example 182, N-(4-((2-(1,1-difluoroethyl)-6-methylpyrimidin-4-yl)amino)-5-(5-fluoropyrimidin-2-yl)pyridin-2-yl)acetamide], for which the IC50 was ≥ 1000 nM against JAK1 (IL-6 stimulation, MSD); ≤ 10 nM at JH2 domain of human Tyk2 (setting [2]); 10 to 100 nM against Tyk2 (MSD); ≥ 1000 nM on JAK2 (IL-3 stimulation, MSD).

`CC(=O)Nc1cc(Nc2cc(C)nc(C(C)(F)F)n2)c(-c2ccc(F)cn2)cn1` [Example 594, N-(4′-((2-(1,1-difluoroethyl)-6-methylpyrimidin-4-yl)amino)-5-fluorO[2,3′-bipyridin]-6′-yl)acetamide]: the IC50 at JAK1 (IL-6 stimulated, MSD) was ≥ 1000 nM; at JH2 domain of human Tyk2 (setting [1]), ≤ 10 nM; against Tyk2 (MSD) it was ≤ 10 nM; against JAK2 (IL-3 stimulated, MSD), ≥ 1000 nM.

For `CC(=O)Nc1cc(Nc2ccnc(C(C)(F)F)n2)c(-c2ccc(OC(F)F)cn2)cn1` [Example 826, N-(4′-((2-(1,1-difluoroethyl)pyrimidin-4-yl)amino)-5-(difluoromethoxy)-[2,3′-bipyridin]-6′-yl)acetamide], the IC50 at JAK1 (IL-6 stimulated) was ≥ 1000 nM; on JH2 domain of human Tyk2 (TR-FRET probe displacement, JH2 domain), ≤ 10 nM; on Tyk2, ≤ 10 nM; at JAK2 (IL-3 stimulated), ≥ 1000 nM.

`CC(=O)Nc1cc(Nc2cc(C)nc(C(C)(F)F)n2)c(-c2cn3ccnc3cn2)cn1` [Example 681, N-(4-((2-(1,1-difluoroethyl)-6-methylpyrimidin-4-yl)amino)-5-(imidazo[1,2-a]pyrazin-6-yl)pyridin-2-yl)acetamide]: the IC50 on JAK1 (IL-6 stimulated, MSD) was ≥ 1000 nM; at JH2 domain of human Tyk2 (setting [1]) it was ≤ 10 nM; at Tyk2 (MSD), ≤ 10 nM; against JAK2 (IL-3 stimulated, MSD), ≥ 1000 nM.

As to `CC(=O)Nc1cc(Nc2cc(C)nc(C(C)(F)F)n2)c(-c2nc3c(s2)CN(C)CC3)cn1` [Example 238, N-(4-((2-(1,1-difluoroethyl)-6-methylpyrimidin-4-yl)amino)-5-(5-methyl-4,5,6,7-tetrahydrothiazolo[5,4-c]pyridin-2-yl)pyridin-2-yl)acetamide], the IC50 on JAK1 (IL-6 stimulation, MSD) is ≥ 1000 nM; at JH2 domain of human Tyk2 (setting [2]), ≤ 10 nM; at Tyk2 (MSD), ≤ 10 nM; on JAK2 (IL-3 stimulation, MSD) it was ≥ 1000 nM.

In the case of `COCCOc1cnc(NC(C)=O)cc1Nc1cc(OC2CC2)nc(C(C)(C)F)n1` [Example 446, N-(4-((6-cyclopropoxy-2-(2-fluoropropan-2-yl)pyrimidin-4-yl)amino)-5-(2-methoxyethoxy)pyridin-2-yl)acetamide], the IC50 against JAK1 (IL-6 stimulated, MSD) is ≥ 1000 nM; at JH2 domain of human Tyk2 (setting [1]) it was ≤ 10 nM; at Tyk2 (MSD), ≤ 10 nM; at JAK2 (IL-3 stimulated, MSD) it was ≥ 1000 nM.

Turning to `CC(=O)Nc1cc(Nc2cc(OC3CC3)nc(C(C)(F)F)n2)c(OC[C@H]2COCCO2)cn1` (single isomer, unassigned) [Example 454, (R)-N-(5-((1,4-dioxan-2-yl)methoxy)-4-((6-cyclopropoxy-2-(1,1-difluoroethyl)pyrimidin-4-yl)amino)pyridin-2-yl)acetamide or (S)-N-(5-((1,4-dioxan-2-yl)methoxy)-4-((6-cyclopropoxy-2-(1,1-difluoroethyl)pyrimidin-4-yl)amino)pyridin-2-yl)acetamide], the IC50 against JAK1 (IL-6 stimulated, MSD) was ≥ 1000 nM; at JH2 domain of human Tyk2 (setting [1]), ≤ 10 nM; at Tyk2 (MSD), ≤ 10 nM; against JAK2 (IL-3 stimulated, MSD), ≥ 1000 nM.

Take `CCc1cc(Nc2cc(NC(C)=O)ncc2OC)nc(C(C)(F)F)n1` [Example 36, N-(4-((2-(1,1-difluoroethyl)-6-ethylpyrimidin-4-yl)amino)-5-methoxypyridin-2-yl)acetamide]: the IC50 against JAK1 (IL-6 stimulation, MSD) was ≥ 1000 nM; on JH2 domain of human Tyk2 (setting [2]) it was ≤ 10 nM; at Tyk2 (MSD) it was 10 to 100 nM; on JAK2 (IL-3 stimulation, MSD), ≥ 1000 nM.

Take `CC(=O)Nc1cc(Nc2ccnc(C(C)(F)F)n2)ccn1` [Example 724, N-(4-((2-(1,1-difluoroethyl)pyrimidin-4-yl)amino)pyridin-2-yl)acetamide]: the IC50 against JAK1 (IL-6 stimulated, MSD) was ≥ 1000 nM; on JH2 domain of human Tyk2 (setting [1]) it was 10 to 100 nM; at Tyk2 (MSD) it was ≥ 1000 nM; against JAK2 (IL-3 stimulated, MSD) it was ≥ 1000 nM.

For the compound `CCc1cc(Nc2cc(NC(C)=O)ncc2-c2coc(C)n2)nc(C(C)(F)F)n1` [Example 584, N-(4-((2-(1,1-difluoroethyl)-6-ethylpyrimidin-4-yl)amino)-5-(2-methyloxazol-4-yl)pyridin-2-yl)acetamide], the IC50 on JAK1 (IL-6 stimulated, MSD) is ≥ 1000 nM; at JH2 domain of human Tyk2 (setting [1]) it was ≤ 10 nM; against Tyk2 (MSD), ≤ 10 nM; against JAK2 (IL-3 stimulated, MSD), ≥ 1000 nM.

As to `CCOc1cnc(NC(C)=O)cc1Nc1ccnc(C(C)(F)F)n1` [Example 4, N-(4-((2-(1,1-difluoroethyl)pyrimidin-4-yl)amino)-5-ethoxypyridin-2-yl)acetamide], the IC50 on JAK1 (IL-6 stimulation, MSD) is ≥ 1000 nM; on JH2 domain of human Tyk2 (setting [2]) it was ≤ 10 nM; at Tyk2 (MSD), 10 to 100 nM; against JAK2 (IL-3 stimulation, MSD) it was ≥ 1000 nM.

On to `[2H]C([2H])([2H])C([2H])([2H])Oc1cnc(NC(C)=O)cc1Nc1cc(OC2CC2)nc(C(C)(F)F)n1` [Example 489, N-(4-((6-cyclopropoxy-2-(1,1-difluoroethyl)pyrimidin-4-yl)amino)-5-(ethoxy-d5)pyridin-2-yl)acetamide], for which the IC50 against JAK1 (IL-6 stimulated, MSD) was ≥ 1000 nM; at JH2 domain of human Tyk2 (setting [1]) it was ≤ 10 nM; against Tyk2 (MSD) it was ≤ 10 nM; at JAK2 (IL-3 stimulated, MSD), ≥ 1000 nM.

`[2H]C([2H])([2H])C([2H])([2H])Oc1cnc(NC(C)=O)cc1Nc1cc(C)nc(C(C)(F)F)n1` [Example 49, N-(4-((2-(1,1-difluoroethyl)-6-methylpyrimidin-4-yl)amino)-5-(ethoxy-d5)pyridin-2-yl)acetamide]: the 50% inhibitory concentration (IC50) against JAK1 (IL-6 stimulation, MSD) is ≥ 1000 nM; on JH2 domain of human Tyk2 (setting [2]), ≤ 10 nM; against Tyk2 (MSD), 10 to 100 nM; at JAK2 (IL-3 stimulation, MSD), ≥ 1000 nM.

Take `CCc1cc(Nc2cc(NC(=O)OC)ncc2OCCOC)nc(C(C)(F)F)n1` [Example 87, methyl (4-((2-(1,1-difluoroethyl)-6-ethylpyrimidin-4-yl)amino)-5-(2-methoxyethoxy)pyridin-2-yl)carbamate]: the 50% inhibitory concentration (IC50) was ≥ 1000 nM against JAK1 (IL-6 stimulation, MSD); ≤ 10 nM on JH2 domain of human Tyk2 (setting [2]); ≤ 10 nM against Tyk2 (MSD); ≥ 1000 nM on JAK2 (IL-3 stimulation, MSD).

With `CC(=O)Nc1cc(Nc2cc(C)nc(C(C)(F)F)n2)c(OC(C)C)cn1` [Example 39, N-(4-((2-(1,1-difluoroethyl)-6-methylpyrimidin-4-yl)amino)-5-isopropoxypyridin-2-yl)acetamide], the IC50 against JAK1 (IL-6 stimulation, MSD) was ≥ 1000 nM; on JH2 domain of human Tyk2 (setting [2]), ≤ 10 nM; against Tyk2 (MSD) it was 10 to 100 nM; on JAK2 (IL-3 stimulation, MSD) it was ≥ 1000 nM.

With `CO[C@H]1C[C@H](Oc2cnc(NC(C)=O)cc2Nc2cc(OC3CC3)nc(C(C)(F)F)n2)C1` [Example 350, N-(4-((6-cyclopropoxy-2-(1,1-difluoroethyl)pyrimidin-4-yl)amino)-5-((1r,3r)-3-methoxycyclobutoxy)pyridin-2-yl)acetamide], the IC50 at JAK1 (IL-6 stimulation, MSD) is ≥ 1000 nM; at JH2 domain of human Tyk2 (setting [2]) it was ≤ 10 nM; against Tyk2 (MSD), 10 to 100 nM; at JAK2 (IL-3 stimulation, MSD), ≥ 1000 nM.

With `CC(=O)Nc1cc(Nc2ccnc(C(C)(F)F)n2)c(-c2cn(C)c(C#N)n2)cn1` [Example 707, N-(5-(2-cyanO1-methyl-1H-imidazol-4-yl)-4-((2-(1,1-difluoroethyl)pyrimidin-4-yl)amino)pyridin-2-yl)acetamide], the IC50 was ≥ 1000 nM at JAK1 (IL-6 stimulated, MSD); ≤ 10 nM at JH2 domain of human Tyk2 (setting [1]); ≤ 10 nM against Tyk2 (MSD); ≥ 1000 nM against JAK2 (IL-3 stimulated, MSD).

As to `COc1cnc(NC(C)=O)cc1Nc1cc(C)nc(C(C)(F)F)n1` [Example 46, N-(4-((2-(1,1-difluoroethyl)-6-methylpyrimidin-4-yl)amino)-5-methoxypyridin-2-yl)acetamide], the IC50 against JAK1 (IL-6 stimulation, MSD) was ≥ 1000 nM; on JH2 domain of human Tyk2 (setting [2]), ≤ 10 nM; on Tyk2 (MSD), 10 to 100 nM; against JAK2 (IL-3 stimulation, MSD) it was ≥ 1000 nM.

For `CC(=O)Nc1cc(Nc2cc(C)nc(C(C)(F)F)n2)c(OCC2CC2)cn1` [Example 11, N-(5-(cyclopropylmethoxy)-4-((2-(1,1-difluoroethyl)-6-methylpyrimidin-4-yl)amino)pyridin-2-yl)acetamide], the 50% inhibitory concentration (IC50) at JAK1 (IL-6 stimulation, MSD) is ≥ 1000 nM; at JH2 domain of human Tyk2 (setting [2]), ≤ 10 nM; against Tyk2 (MSD) it was 10 to 100 nM; on JAK2 (IL-3 stimulation, MSD) it was ≥ 1000 nM.

Regarding `CNC(=O)Nc1cc(Nc2cc(C)nc(C(C)(F)F)n2)c(-c2ccn(C)n2)cn1` [Example 289, 1-(4-((2-(1,1-difluoroethyl)-6-methylpyrimidin-4-yl)amino)-5-(1-methyl-1H-pyrazol-3-yl)pyridin-2-yl)-3-methylurea], the half-inhibitory concentration (IC50) is ≥ 1000 nM at JAK1 (IL-6 stimulation, MSD); ≤ 10 nM on JH2 domain of human Tyk2 (setting [2]); ≤ 10 nM against Tyk2 (MSD); ≥ 1000 nM against JAK2 (IL-3 stimulation, MSD).

As for `[2H]C([2H])([2H])C([2H])([2H])Oc1cnc(NC(C)=O)cc1Nc1cc(NC2CCC2)nc(C(C)(F)F)n1` [Example 488, N-(4-((6-(cyclobutylamino)-2-(1,1-difluoroethyl)pyrimidin-4-yl)amino)-5-(ethoxy-d5)pyridin-2-yl)acetamide], the IC50 on JAK1 (IL-6 stimulated, MSD) was ≥ 1000 nM; at JH2 domain of human Tyk2 (setting [1]), ≤ 10 nM; against Tyk2 (MSD), ≤ 10 nM; against JAK2 (IL-3 stimulated, MSD), ≥ 1000 nM.

The values above are taken from patent publication US20260028365A1 (BIOGEN MA INC., priority 2022, published 2026).
